Experimental data taken from patent US20260042754A1, “Substituted Bicyclic Heteroaryl Sulfonamide Derivatives for the Treatment of Cancer” (NODUS ONCOLOGY LIMITED, priority 2022, published 2026).
Like-named read-outs stand apart in the source and are kept apart here.

How the values were obtained:
[1] = target: Recombinant His-tagged human PARG protein (Homo sapiens (Human), UniProt Q86W56); assay: PARG enzymatic assay (TFMU-ADPr fluorescence); assay type: biochemical; settings: 1 nM enzyme, 200 μM TFMU-ADPr, read after 30 minutes
How it was run: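 Sf21-expressed His-tagged human PARG (1 nM) preincubated 15 min with compound (8-point series, 0.5% DMSO) in pH 7.4 phosphate/KCl/β-mercaptoethanol buffer, then 200 μM TFMU-ADPr added. Fluorescence (ex 380/em 535 nm) read after 30 min; IC50 from 4-parameter logistic fit, no-enzyme control as bottom.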

[2] = test system: NCI-H1650; assay: Modified cell proliferation assay (CellTiter-Glo), NCI-H1650; assay type: cell-based; settings: modified protocol, 384-well, 300 cells per well, 120 h, highest concentration tested 30000 nM, read-out: NCI-H1650 GI50 (high PARG dependency)
How it was run: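 NCI-H1650 or RMUG-S cells seeded at 300 cells/well in RPMI1640 with 10% FCS, compounds added after 24 h, then 120 h at 37 °C/5% CO2. Viability read by CellTiter-Glo luminescence; IC50 from fitted dose-response inflection point. Z′≥0.5 required.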

Chain of Recombinant His-tagged human PARG protein (Q86W56 whole entry): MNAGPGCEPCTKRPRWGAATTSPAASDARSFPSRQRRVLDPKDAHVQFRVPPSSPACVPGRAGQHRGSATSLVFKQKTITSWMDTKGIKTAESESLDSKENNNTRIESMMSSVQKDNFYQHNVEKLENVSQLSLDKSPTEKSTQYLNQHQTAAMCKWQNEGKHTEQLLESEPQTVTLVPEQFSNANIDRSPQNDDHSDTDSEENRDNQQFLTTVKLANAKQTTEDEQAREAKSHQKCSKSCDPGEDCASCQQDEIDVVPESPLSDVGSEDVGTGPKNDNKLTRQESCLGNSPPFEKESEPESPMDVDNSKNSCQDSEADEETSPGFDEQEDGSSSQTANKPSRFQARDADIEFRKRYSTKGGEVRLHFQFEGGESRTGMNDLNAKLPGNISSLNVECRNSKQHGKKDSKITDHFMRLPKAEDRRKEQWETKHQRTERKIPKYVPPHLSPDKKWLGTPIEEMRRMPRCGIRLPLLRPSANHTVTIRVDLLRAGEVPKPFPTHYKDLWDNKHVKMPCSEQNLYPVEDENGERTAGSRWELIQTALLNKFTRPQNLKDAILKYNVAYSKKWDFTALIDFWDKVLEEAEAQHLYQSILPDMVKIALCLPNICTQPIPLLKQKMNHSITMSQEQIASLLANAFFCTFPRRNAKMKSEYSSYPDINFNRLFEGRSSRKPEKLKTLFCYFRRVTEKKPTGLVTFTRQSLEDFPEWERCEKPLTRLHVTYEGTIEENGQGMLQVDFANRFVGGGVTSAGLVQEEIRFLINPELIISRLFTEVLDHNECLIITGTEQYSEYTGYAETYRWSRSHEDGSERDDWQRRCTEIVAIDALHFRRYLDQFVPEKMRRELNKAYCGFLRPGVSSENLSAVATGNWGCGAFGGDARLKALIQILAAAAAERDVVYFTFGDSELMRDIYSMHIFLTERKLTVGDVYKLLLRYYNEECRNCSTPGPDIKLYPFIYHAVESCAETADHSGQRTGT

Row | Compound | IC50 [1] | GI50 ([2]; Homo sapiens, NCI-H1650) | GI50 [2]
1 | CO/N=c1\[nH]c2ccc(S(=O)(=O)NC3(C)COC3)cc2c(=O)n1Cc1cnn(C)c1 [Example 2, 2-methoxyimino-N-(3-methyloxetan-3-yl)-3-[(1-methylpyrazol-4-yl)methyl]-4-oxo-1H-quinazoline-6-sulfonamide] | 30 to 99 nM | 500 to 2000 nM | 
2 | CO/N=c1\[nH]c2c(N3CCN[C@H](C)C3)cc(S(=O)(=O)NC3(C)CC3)cc2c(=O)n1Cc1cnn(C)c1 [Example 7, 2-methoxyimino-N-(1-methylcyclopropyl)-3-[(1-methylpyrazol-4-yl)methyl]-4-oxo-8-[(3R)-3-methylpiperazin-1-yl]-1H-quinazoline-6-sulfonamide] | < 30 nM | < 500 nM | 
3 | CON=c1[nH]c2c(N3CCN(C(=O)C4(C)CC4)[C@H](C)C3)cc(S(=O)(=O)NC3(C)CC3)cc2c(=O)n1Cc1cnn(C)c1 [Example 8, 2-methoxyimino-N-(1-methylcyclopropyl)-3-[(1-methylpyrazol-4-yl)methyl]-4-oxo-8-[(3R)-3-methyl-4-(1-methylcyclopropanecarbonyl)piperazin-1-yl]-1H-quinazoline-6-sulfonamide] | < 30 nM |  | < 500 nM

Results, then the molecule that gave them:

Row | IC50 [1] | GI50 ([2]; Homo sapiens, NCI-H1650) | GI50 [2] | Compound
4 | < 30 nM | 500 to 2000 nM |  | CO/N=c1\[nH]c2ccc(S(=O)(=O)NC3(C)CC3)cc2c(=O)n1Cc1cnc(C)s1 [Example 1, 2-methoxyimino-N-(1-methylcyclopropyl)-3-[(2-methylthiazol-5-yl)methyl]-4-oxo-1H-quinazoline-6-sulfonamide]
5 | < 30 nM | > 2000 nM |  | Cc1nc(C)c(CO/N=c2\[nH]c3ccc(S(=O)(=O)NC4(C)CC4)cc3c(=O)n2Cc2cnn(C)c2)s1 [Example 3, 2-[(2,4-dimethylthiazol-5-yl)methoxyimino]-N-(1-methylcyclopropyl)-3-[(1-methylpyrazol-4-yl)methyl]-4-oxo-1H-quinazoline-6-sulfonamide]
6 | < 30 nM | > 2000 nM |  | CO/N=c1\[nH]c2c(-c3ccc(C(=O)N(C)C)cc3)cc(S(=O)(=O)NC3(C)CC3)cc2c(=O)n1Cc1cnn(C)c1 [Example 5, 4-[2-methoxyimino-6-[(1-methylcyclopropyl)sulfamoyl]-3-[(1-methylpyrazol-4-yl)methyl]-4-oxo-1H-quinazolin-8-yl]-N,N-dimethyl-benzamide]
